Reference: US8426408B2, “Pyrimidine inhibitors of kinases” (AbbVie Inc., priority 2009, dated 2013)

What was measured:
Type in all cases: biochemical
Aurora A = target: T1, Aurora A (Homo sapiens, UniProt O14965); experiment: Aurora A enzyme inhibition (time-resolved fluorescence, STK substrate-2); conditions: 1 mM ATP
T1 sequence (O14965 1-403): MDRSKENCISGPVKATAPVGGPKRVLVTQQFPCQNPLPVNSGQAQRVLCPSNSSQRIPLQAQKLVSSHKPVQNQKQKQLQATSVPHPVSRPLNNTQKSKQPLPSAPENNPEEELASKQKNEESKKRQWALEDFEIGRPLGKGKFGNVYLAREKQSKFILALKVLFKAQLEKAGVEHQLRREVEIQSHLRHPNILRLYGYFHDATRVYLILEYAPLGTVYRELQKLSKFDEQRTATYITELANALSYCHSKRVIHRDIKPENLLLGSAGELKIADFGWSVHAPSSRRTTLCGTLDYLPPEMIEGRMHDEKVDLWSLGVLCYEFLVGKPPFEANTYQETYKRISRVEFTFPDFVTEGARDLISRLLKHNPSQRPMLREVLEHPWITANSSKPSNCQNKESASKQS
Experimental: To determine Aurora A and C activity of representative compounds of the invention, Active Aurora A or C enzyme was incubated in wells of a 384 well plate with biotinylated STK substrate-2 (Upstate), 1 mM ATP, and various concentrations of inhibitors in a Hepes buffer, pH 7.4 containing MgCl2, sodium othrovanadate, and Triton X-100. After 1 hour, the reaction was stopped with EDTA and anti-phospho-STK antibody Europium Cryptate (Upstate) and SA-XL665 (Upstate) were added to detect the phosphopeptide. The amount of phosphorylation was determined by the time-resolved fluorescence ratio of signals at 665 nm and 615 nm. The IC50s were calculated by an exponential fit of the inhibition values with the inhibitor concentrations using Assay Explorer software.

KDR = KDR (Homo sapiens, UniProt P35968); experiment: KDR HTRF in vitro kinase assay; design: purified enzyme (His6-KDR 789-1354, MW 63 kD); His6 (N); conditions: 1 mM ATP; read-out: KDR enzyme inhibition data (Ki)
Chain of KDR (P35968 789-1354): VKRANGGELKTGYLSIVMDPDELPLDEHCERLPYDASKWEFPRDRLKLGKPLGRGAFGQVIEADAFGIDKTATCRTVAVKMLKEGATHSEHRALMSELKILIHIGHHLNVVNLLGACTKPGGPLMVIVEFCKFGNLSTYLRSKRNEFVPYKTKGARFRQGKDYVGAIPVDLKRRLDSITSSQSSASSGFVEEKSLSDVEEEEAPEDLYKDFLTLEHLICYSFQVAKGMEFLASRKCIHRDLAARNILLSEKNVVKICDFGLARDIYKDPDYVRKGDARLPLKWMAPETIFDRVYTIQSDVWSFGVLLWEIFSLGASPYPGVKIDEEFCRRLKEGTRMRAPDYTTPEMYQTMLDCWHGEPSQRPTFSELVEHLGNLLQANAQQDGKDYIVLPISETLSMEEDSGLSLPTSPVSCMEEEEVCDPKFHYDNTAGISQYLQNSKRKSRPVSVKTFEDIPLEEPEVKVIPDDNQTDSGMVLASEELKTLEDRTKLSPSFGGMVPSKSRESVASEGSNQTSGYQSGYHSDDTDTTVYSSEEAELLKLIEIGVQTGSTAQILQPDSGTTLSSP
Experimental: To determine the activity of the various kinases, a homogenous time-resolved fluorescence (HTRF) in vitro kinase assay was used. (Mathis, G., HTRF® Technology. J Biomol Screen, 1999. 4(6): p. 309-314; Alfred J. Kolb, Paul V. Kaplita, David J. Hayes, Young-Whan Park, Christine Pernell, John S. Major and Gerard Mathis, Drug Discovery Today, 1998, 3, 333-342.)
For example for KDR, 7 ng/well of purified enzyme (His6-KDR 789-1354, MW 63 kD) was mixed with 0.5 μM N-biotinylated substrate (Biotin-Ahx-AEEEYFFLA-amide (SEQ. ID. 1)), various concentrations of inhibitor in reaction buffer (50 mM HEPES, pH 7.1, 10 mM MgCl2, 2 mM MnCl2, 0.1% BSA and 1 mM DTT, 40 L final volume), ATP (1 mM final conc.) in a black 384-well plate. After 60 minutes incubation at room temperature, the reaction was quenched by addition of a buffered EDTA solution (final approximate concentrations: 30 mM EDTA, 0.1% BSA, 0.1% Triton X-100 and 0.24M KF) and a solution of revelation agents (to give 0.084 ng/well streptavidin-XL-665 (Cis-Bio) and 6.5 ng/well antiphsophotyrosine mAb PT66-K Europium kryptate) was added to the reaction mixture. The quenched reaction was allowed to stand at room temperature for 3 hours and was then read in a time-resolved fluorescence detector (InVision, Perkin-Elmer) at 620 nm and 665 nm sequentially with excitation. The ratio between the signal of 620 nm and 665 nm was used in the calculation of the IC50.

Aurora B = target: T2, Aurora B (Homo sapiens, UniProt Q96GD4); experiment: Aurora B enzyme inhibition (time-resolved fluorescence, histone H3 peptide); conditions: 1 mM ATP
T2 construct: Active Aurora B enzyme (recombinant residues 1-344)
T2 sequence (Q96GD4 whole entry, the tested form may be a part): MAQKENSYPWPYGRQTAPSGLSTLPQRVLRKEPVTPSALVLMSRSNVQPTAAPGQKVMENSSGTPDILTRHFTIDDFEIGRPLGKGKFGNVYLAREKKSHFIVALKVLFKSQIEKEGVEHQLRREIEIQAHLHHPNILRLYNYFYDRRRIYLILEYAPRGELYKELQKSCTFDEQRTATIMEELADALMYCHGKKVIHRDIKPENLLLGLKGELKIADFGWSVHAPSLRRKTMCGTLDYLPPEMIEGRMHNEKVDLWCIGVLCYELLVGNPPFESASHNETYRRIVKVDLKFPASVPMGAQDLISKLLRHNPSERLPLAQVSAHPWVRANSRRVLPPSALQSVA
T2 sequence (Q9NQS7 826-918 partner limits assumed): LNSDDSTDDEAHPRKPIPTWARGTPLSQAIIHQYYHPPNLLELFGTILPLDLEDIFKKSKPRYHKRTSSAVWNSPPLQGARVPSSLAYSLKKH
Experimental: To determine Aurora B activity of representative compounds of the invention, Active Aurora B enzyme (recombinant residues 1-344) and INCENP (recombinant GST fusion protein (Upstate)) were incubated in wells of a 384 well plate with biotinylated histone H3 peptide residues 1-21 (Upstate), 1 mM ATP, and various concentrations of inhibitors in a HEPES buffer, pH 7.4 containing MgCl2, sodium othrovanadate, and Triton X-100. After 1 hour, the reaction was stopped with EDTA and anti-phospho-histone H3 Europium Cryptate (Cis-Bio) and SA-APC (Phycolink, Prozyme) were added to detect the phosphopeptide. The amount of phosphorylation was determined by the time-resolved fluorescence ratio of signals at 665 nm and 615 nm. The IC50's were calculated by an exponential fit of the inhibition values with the inhibitor concentrations using Assay Explorer software.

SMILES	Ki (Aurora A) [nM]	Ki (KDR) [nM]	Ki (Aurora B) [nM]
NC(=O)[C@@H]1[C@H](Nc2nc(Nc3cnn(CCN4CCCCC4)c3)ncc2Br)[C@H]2C=C[C@@H]1C2.NC(=O)[C@H]1[C@@H](Nc2nc(Nc3cnn(CCN4CCCCC4)c3)ncc2Br)[C@@H]2C=C[C@H]1C2 (mixture of isomers) [Example 38, (1S,2S,3R,4R)-3-[(5-bromo-2-{[1-(2-piperidin-1-ylethyl)-1H-pyrazol-4-yl]amino}pyrimidin-4-yl)amino]bicyclo[2.2.1]hept-5-ene-2-carboxamide and (1R,2R,3S,4S)-3-[(5-bromo-2-{[1-(2-piperidin-1-ylethyl)-1H-pyrazol-4-yl]amino}pyrimidin-4-yl)amino]bicyclo[2.2.1]hept-5-ene-2-carboxamide]	< 100	< 100	< 100
NC(=O)[C@@H]1[C@H](Nc2nc(Nc3cnn(CCN4CCOCC4)c3)ncc2Br)[C@H]2C=C[C@@H]1C2.NC(=O)[C@H]1[C@@H](Nc2nc(Nc3cnn(CCN4CCOCC4)c3)ncc2Br)[C@@H]2C=C[C@H]1C2 (mixture of isomers) [Example 39, (1S,2S,3R,4R)-3-[(5-bromo-2-{[1-(2-morpholin-4-ylethyl)-1H-pyrazol-4-yl]amino}pyrimidin-4-yl)amino]bicyclo[2.2.1]hept-5-ene-2-carboxamide and (1R,2R,3S,4S)-3-[(5-bromo-2-{[1-(2-morpholin-4-ylethyl)-1H-pyrazol-4-yl]amino}pyrimidin-4-yl)amino]bicyclo[2.2.1]hept-5-ene-2-carboxamide]	< 100	< 100	< 100
Cn1cc(Nc2ncc(Cl)c(N[C@@H]3CCC[C@@H]3C(N)=O)n2)cn1.Cn1cc(Nc2ncc(Cl)c(N[C@H]3CCC[C@H]3C(N)=O)n2)cn1 (mixture of isomers) [Example 43, (1S,2R)-2-({5-chloro-2-[(1-methyl-1H-pyrazol-4-yl)amino]pyrimidin-4-yl}amino)cyclopentanecarboxamide and (1R,2S)-2-({5-chloro-2-[(1-methyl-1H-pyrazol-4-yl)amino]pyrimidin-4-yl}amino)cyclopentanecarboxamide]	< 100	< 100	< 100

Second part, the compound after the results:

Ki (Aurora A) [nM]	Ki (KDR) [nM]	Ki (Aurora B) [nM]	SMILES
< 100	< 100	< 100	CN(C)CCn1cc(Nc2ncc(Cl)c(N[C@@H]3[C@H](C(N)=O)[C@H]4C=C[C@@H]3C4)n2)cn1.CN(C)CCn1cc(Nc2ncc(Cl)c(N[C@H]3[C@@H](C(N)=O)[C@@H]4C=C[C@H]3C4)n2)cn1 (mixture of isomers) [Example 33, (1S,2S,3R,4R)-3-{[5-chloro-2-({1-[2-(dimethylamino)ethyl]-1H-pyrazol-4-yl}amino)pyrimidin-4-yl]amino}bicyclo[2.2.1]hept-5-ene-2-carboxamide and (1R,2R,3S,4S)-3-{[5-chloro-2-({1-[2-(dimethylamino)ethyl]-1H-pyrazol-4-yl}amino)pyrimidin-4-yl]amino}bicyclo[2.2.1]hept-5-ene-2-carboxamide]
< 100	< 100	< 100	NC(=O)[C@@H]1[C@H](Nc2nc(Nc3cnn(CCN4CCCCC4)c3)ncc2Cl)[C@H]2C=C[C@@H]1C2.NC(=O)[C@H]1[C@@H](Nc2nc(Nc3cnn(CCN4CCCCC4)c3)ncc2Cl)[C@@H]2C=C[C@H]1C2 (mixture of isomers) [Example 36, (1S,2S,3R,4R)-3-[(5-chloro-2-{[1-(2-piperidin-1-ylethyl)-1H-pyrazol-4-yl]amino}pyrimidin-4-yl)amino]bicyclo[2.2.1]hept-5-ene-2-carboxamide and (1R,2R,3S,4S)-3-[(5-chloro-2-{[1-(2-piperidin-1-ylethyl)-1H-pyrazol-4-yl]amino}pyrimidin-4-yl)amino]bicyclo[2.2.1]hept-5-ene-2-carboxamide]
